Experimental findings from PubChem BioAssay (NCI) are described below.

Structures are written as SMILES.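 Five compound concentrations were applied to cells in 96-well plates for 48 hours; endpoints were derived by simple linear interpolation of the resulting dose-response curve. Here, GI50 denotes the concentration required for 50% inhibition of growth. The concentration for full growth arrest is given as TGI.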

Some test systems named below: UO-31 renal; OVCAR-8 ovarian; A549 NSCLC; U251 CNS; SF-268 CNS; KM12 colon; M14 melanoma; NCI-H460 lung; HCC-2998 colon; PC-3 prostate.
What all share (assay): NCI tumour cell line growth inhibition, 48 h

As to `O=C(O)CN(c1ccc(F)cc1)S(=O)(=O)c1ccccc1`, the TGI in the test on UO-31 renal, in the test on OVCAR-8 ovarian, in the test with A549 NSCLC, in the test on U251 CNS, with SF-268 CNS and with KM12 colon was greater than 100 µM throughout. In addition, the TGI in the test on M14 melanoma and in the test with NCI-H460 lung was greater than 100 µM each time.

Turning to `CCOC(=O)CN(c1ccccc1)c1nc(=[N+](C)C)ss1`, the TGI with HCC-2998 colon is greater than 100 µM; in the test with UO-31 renal, 54.5 µM; in the test on OVCAR-8 ovarian, 70.1 µM; in the test with A549 NSCLC it was greater than 100 µM; in the test with U251 CNS, 41.5 µM; in the test with SF-268 CNS, greater than 100 µM. In the test on M14 melanoma, the TGI was 96.8 µM.

For the molecule `NCCSC(c1ccccc1)(c1ccccc1)c1ccccc1`, the GI50 is 2.03 µM in the test with UO-31 renal; 0.989 µM in the test on OVCAR-8 ovarian; 0.742 µM with A549 NSCLC; 1.36 µM with PC-3 prostate; 0.373 µM with U251 CNS; 0.966 µM in the test on SF-268 CNS. Also, the results for the GI50 with KM12 colon, with M14 melanoma and in the test on NCI-H460 lung were 1.84 µM, 0.354 µM and 1.31 µM, respectively. Moreover, the TGI worked out at 12.9 µM in the test on UO-31 renal; 7 µM with OVCAR-8 ovarian; 6.03 µM in the test with A549 NSCLC; 11.5 µM with PC-3 prostate; 1.72 µM in the test on U251 CNS; 11.2 µM in the test on SF-268 CNS. In addition, the TGI came to 4.82 µM with KM12 colon, 1.15 µM with M14 melanoma and 4.01 µM in the test with NCI-H460 lung.

As to `O=C(O)c1c2c(cc3c(=O)cc(-c4ccccc4)oc13)CCCC2`, the TGI with HCC-2998 colon, in the test on UO-31 renal, in the test on OVCAR-8 ovarian, with A549 NSCLC, with U251 CNS and in the test with SF-268 CNS was greater than 100 µM each time. The TGI in the test on KM12 colon, in the test on M14 melanoma and in the test on NCI-H460 lung was greater than 100 µM throughout.

On to `COc1cc(CCNC(=O)OC(C)(C)C)c2c(c1OC)SSSSS2`, for which the GI50 is 2.18 µM in the test on UO-31 renal; 3.53 µM with OVCAR-8 ovarian; 3.36 µM with A549 NSCLC; 3.72 µM in the test with PC-3 prostate; 2.47 µM in the test with U251 CNS; 1.87 µM with SF-268 CNS. For the same molecule, the GI50 is 3.67 µM in the test on KM12 colon, 4.13 µM in the test with M14 melanoma and 2.04 µM in the test with NCI-H460 lung. The TGI in the test with UO-31 renal amounted to 5.47 µM; in the test on OVCAR-8 ovarian it was 11.7 µM; with A549 NSCLC, 10.2 µM; with PC-3 prostate, 13.6 µM; with U251 CNS, 5.28 µM; with SF-268 CNS, 4.04 µM. The TGI with KM12 colon is 12.2 µM; in the test with M14 melanoma, 50.7 µM; in the test with NCI-H460 lung, 4.81 µM.

As to `Cc1ccc(C(=O)NCCN(C)C)c2nc3ccccc3cc12`, the TGI with HCC-2998 colon was found to be 13.4 µM; in the test with UO-31 renal, 11.1 µM; in the test on OVCAR-8 ovarian, 7.99 µM; in the test with A549 NSCLC, 4.53 µM; in the test with U251 CNS it was 4.09 µM; with KM12 colon, 6.91 µM. For the same molecule, the TGI in the test with M14 melanoma was greater than 100 µM; in the test with NCI-H460 lung it was 14.7 µM.

Take `COc1cc(CCC(=O)NC[C@@H](O)c2ccccc2)ccc1O`: the GI50 in the test on UO-31 renal, in the test on OVCAR-8 ovarian, in the test on A549 NSCLC, with PC-3 prostate, in the test with U251 CNS and in the test on SF-268 CNS was greater than 100 µM in each case. The GI50 with KM12 colon, in the test on M14 melanoma and with NCI-H460 lung was greater than 100 µM in each case. The TGI with UO-31 renal, in the test on OVCAR-8 ovarian, in the test with A549 NSCLC, with PC-3 prostate, in the test on U251 CNS and in the test on SF-268 CNS was greater than 100 µM in each case. The TGI in the test on KM12 colon, in the test with M14 melanoma and with NCI-H460 lung was greater than 100 µM each time.

As to `Cc1ccc(C2=Nc3ccccc3S(=O)C(c3ccc4c(c3)OCO4)C2)cc1` (centres undefined), the TGI is greater than 10 µM with HCC-2998 colon; greater than 100 µM with UO-31 renal; 46.9 µM with OVCAR-8 ovarian; greater than 100 µM in the test with A549 NSCLC; 31.1 µM with U251 CNS; 50.5 µM in the test with SF-268 CNS. For the same molecule, the TGI in the test on KM12 colon is 57.8 µM; in the test with M14 melanoma it was 38 µM; in the test on NCI-H460 lung it was greater than 10 µM.

In the case of `CC(C)=NNC(=S)NC12CC3CC(CC(C3)C1)C2`, the TGI in the test with UO-31 renal, in the test on OVCAR-8 ovarian, in the test with A549 NSCLC, in the test on U251 CNS, with SF-268 CNS and with KM12 colon was greater than 100 µM throughout. Also, the TGI with M14 melanoma and in the test with NCI-H460 lung was greater than 100 µM in each case.

As to `Nc1ncn([C@H]2C[C@H](OP(=O)(O)OC[C@H]3O[C@@H](n4cnc5c(=O)[nH]c(N)nc54)C[C@@H]3O)[C@@H](CO)O2)c(=O)n1`, the GI50 is greater than 100 µM in the test with HCC-2998 colon; greater than 100 µM with UO-31 renal; 26.6 µM with OVCAR-8 ovarian; 82.9 µM with A549 NSCLC; greater than 100 µM in the test with U251 CNS; greater than 100 µM in the test with SF-268 CNS. In addition, the GI50 with M14 melanoma is greater than 100 µM; with NCI-H460 lung, 7.44 µM. For the same molecule, the TGI with HCC-2998 colon, with UO-31 renal, with OVCAR-8 ovarian, in the test with A549 NSCLC, with U251 CNS and with SF-268 CNS was greater than 100 µM in each case. Moreover, the TGI in the test with M14 melanoma and in the test on NCI-H460 lung was greater than 100 µM in each case.

Take `c1ccc2c(CNCCCCCCCCNCc3cccc4ccccc34)cccc2c1`: the TGI in the test with UO-31 renal stood at 3.45 µM; in the test on OVCAR-8 ovarian it was 3.5 µM; in the test with A549 NSCLC, 5.41 µM; in the test on U251 CNS, 3.13 µM; in the test with SF-268 CNS, 21.4 µM; in the test on KM12 colon it was 3.24 µM. Moreover, the TGI came out at 3.18 µM in the test with M14 melanoma and 2.8 µM with NCI-H460 lung.

With `COC(=O)C1[C@H](c2ccc3c(c2)OCO3)OC(=O)[C@]1(C(=O)OC)C(=O)c1ccc(OC)c(OC)c1` (some centres undefined), the TGI with HCC-2998 colon, in the test with UO-31 renal, in the test with OVCAR-8 ovarian, with U251 CNS, in the test on KM12 colon and in the test with M14 melanoma was greater than 100 µM each time. Also, the TGI in the test with NCI-H460 lung was greater than 100 µM.
